Results reported in ChEMBL document CHEMBL4334438, “Discovery of novel glycogen synthase kinase-3α inhibitors: Structure-based virtual screening, preliminary SAR and biological evaluation for treatment of acute myeloid leukemia” (Eur J Med Chem, 2019).

Key:
[1] = target: Tyrosine-protein kinase ABL2 (Homo sapiens) (UniProt P42684); test: Inhibition of human Arg (38 to end residues) assessed as residual activity at 1 uM using EAIYAAPFAKKK as substrate incubated for 40 mins in presence of [gamma-33ATP] by scintillation counting based radiometry assay relative to control
Tyrosine-protein kinase ABL2 (Homo sapiens), sequence (P42684 whole entry, the tested form may be a part): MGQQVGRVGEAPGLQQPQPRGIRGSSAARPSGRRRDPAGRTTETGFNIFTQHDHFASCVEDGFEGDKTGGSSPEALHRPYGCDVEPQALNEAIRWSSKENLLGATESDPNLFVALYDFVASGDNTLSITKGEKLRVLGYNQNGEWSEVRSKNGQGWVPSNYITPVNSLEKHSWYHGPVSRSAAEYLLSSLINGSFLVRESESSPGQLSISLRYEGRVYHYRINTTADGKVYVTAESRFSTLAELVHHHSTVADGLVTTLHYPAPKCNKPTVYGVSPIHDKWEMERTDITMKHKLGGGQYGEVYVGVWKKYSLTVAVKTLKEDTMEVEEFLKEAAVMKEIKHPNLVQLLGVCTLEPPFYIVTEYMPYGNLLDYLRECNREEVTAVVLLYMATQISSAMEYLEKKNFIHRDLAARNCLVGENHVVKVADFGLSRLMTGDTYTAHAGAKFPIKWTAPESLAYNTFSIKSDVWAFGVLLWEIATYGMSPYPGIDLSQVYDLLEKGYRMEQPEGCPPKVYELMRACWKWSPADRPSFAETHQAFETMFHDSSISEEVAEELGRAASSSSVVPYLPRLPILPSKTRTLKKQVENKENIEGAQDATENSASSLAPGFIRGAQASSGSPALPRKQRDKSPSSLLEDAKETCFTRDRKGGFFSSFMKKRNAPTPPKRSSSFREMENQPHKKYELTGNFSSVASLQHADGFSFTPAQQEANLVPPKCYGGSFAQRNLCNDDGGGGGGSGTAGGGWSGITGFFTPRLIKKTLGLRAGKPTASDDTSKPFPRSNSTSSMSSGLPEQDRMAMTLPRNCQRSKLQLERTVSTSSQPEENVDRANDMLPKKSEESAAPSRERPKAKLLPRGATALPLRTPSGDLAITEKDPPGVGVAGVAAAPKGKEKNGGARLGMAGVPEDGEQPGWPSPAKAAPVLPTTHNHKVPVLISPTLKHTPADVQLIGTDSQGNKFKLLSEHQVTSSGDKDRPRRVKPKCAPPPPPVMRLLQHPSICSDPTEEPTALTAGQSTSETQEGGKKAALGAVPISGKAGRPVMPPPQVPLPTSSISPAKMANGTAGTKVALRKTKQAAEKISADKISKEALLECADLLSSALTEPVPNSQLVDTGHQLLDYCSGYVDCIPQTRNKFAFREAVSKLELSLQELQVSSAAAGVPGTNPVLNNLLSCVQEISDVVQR

[2] = target: Bone morphogenetic protein receptor type-2 (Homo sapiens) (UniProt Q13873); test: Inhibition of recombinant human BMPR2 (172 to 734 residues) assessed as residual activity at 1 uM using myelin basic protein as substrate incubated for 120 mins in presence of [gamma-33ATP] by scintillation counting based radiometry assay relative to control
[3] = target: Calcium/calmodulin-dependent protein kinase type II subunit delta (Homo sapiens) (UniProt Q13557); test: Inhibition of recombinant full length human CaMK2delta assessed as residual activity at 1 uM […] incubated for 40 mins in presence of [gamma-33ATP] by scintillation counting based radiometry assay relative to control
Calcium/calmodulin-dependent protein kinase type II subunit delta (Homo sapiens), sequence (Q13557 whole entry, the tested form may be a part): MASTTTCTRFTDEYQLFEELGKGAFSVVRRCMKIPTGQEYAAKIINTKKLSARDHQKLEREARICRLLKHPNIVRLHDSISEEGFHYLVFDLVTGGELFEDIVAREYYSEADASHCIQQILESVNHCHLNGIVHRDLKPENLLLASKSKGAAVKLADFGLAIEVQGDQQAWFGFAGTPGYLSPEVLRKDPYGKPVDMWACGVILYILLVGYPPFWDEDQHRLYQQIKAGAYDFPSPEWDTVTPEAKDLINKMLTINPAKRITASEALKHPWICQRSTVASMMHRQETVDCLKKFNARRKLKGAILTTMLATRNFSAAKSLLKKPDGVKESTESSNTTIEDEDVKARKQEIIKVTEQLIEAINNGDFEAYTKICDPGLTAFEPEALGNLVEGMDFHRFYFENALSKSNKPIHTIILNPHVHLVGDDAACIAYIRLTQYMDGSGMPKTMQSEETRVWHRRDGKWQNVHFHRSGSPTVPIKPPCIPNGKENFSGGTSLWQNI

[4] = target: Myotonin-protein kinase (Homo sapiens) (UniProt Q09013); test: Inhibition of recombinant human DMPK (1 to 549 residues) assessed as residual activity at 1 uM using KKSRGDYMTMQIG as substrate at 40 mins in presence of [gamma-33ATP] by scintillation counting based radiometry assay relative to control
[5] = system: Fibroblast growth factor receptor 1 (Homo sapiens), P11362 [V561M]; test: Inhibition of recombinant human FGFR1 V561M mutant (456 to 765 residues) assessed as residual activity at 1 uM using GGEEEEYFELVKKKK as substrate at 40 mins in presence of [gamma-33ATP] by scintillation counting based radiometry assay relative to control
[6] = target: Fibroblast growth factor receptor 2 (Homo sapiens) (UniProt P21802); test: Inhibition of recombinant human FGFR2 (456 to 770 residues) assessed as residual activity at 1 uM using poly(Glu, Tyr) 4:1 as substrate at 40 mins in presence of [gamma-33ATP] by scintillation counting based radiometry assay relative to control
[7] = system: Homeodomain-interacting protein kinase 2 (Homo sapiens), Q9H2X6 [UNDEFINED MUTATION]; test: Inhibition of human HIPK2 I471N mutant (165 to 564 residues) assessed as residual activity at 1 uM using myelin basic protein as substrate after 40 mins by [gamma-33ATP] radiometric assay relative to control
Homeodomain-interacting protein kinase 2 (Homo sapiens), Q9H2X6 [UNDEFINED MUTATION], sequence (Q9H2X6 whole entry, looked up, stated change not applied, the tested form may be a part): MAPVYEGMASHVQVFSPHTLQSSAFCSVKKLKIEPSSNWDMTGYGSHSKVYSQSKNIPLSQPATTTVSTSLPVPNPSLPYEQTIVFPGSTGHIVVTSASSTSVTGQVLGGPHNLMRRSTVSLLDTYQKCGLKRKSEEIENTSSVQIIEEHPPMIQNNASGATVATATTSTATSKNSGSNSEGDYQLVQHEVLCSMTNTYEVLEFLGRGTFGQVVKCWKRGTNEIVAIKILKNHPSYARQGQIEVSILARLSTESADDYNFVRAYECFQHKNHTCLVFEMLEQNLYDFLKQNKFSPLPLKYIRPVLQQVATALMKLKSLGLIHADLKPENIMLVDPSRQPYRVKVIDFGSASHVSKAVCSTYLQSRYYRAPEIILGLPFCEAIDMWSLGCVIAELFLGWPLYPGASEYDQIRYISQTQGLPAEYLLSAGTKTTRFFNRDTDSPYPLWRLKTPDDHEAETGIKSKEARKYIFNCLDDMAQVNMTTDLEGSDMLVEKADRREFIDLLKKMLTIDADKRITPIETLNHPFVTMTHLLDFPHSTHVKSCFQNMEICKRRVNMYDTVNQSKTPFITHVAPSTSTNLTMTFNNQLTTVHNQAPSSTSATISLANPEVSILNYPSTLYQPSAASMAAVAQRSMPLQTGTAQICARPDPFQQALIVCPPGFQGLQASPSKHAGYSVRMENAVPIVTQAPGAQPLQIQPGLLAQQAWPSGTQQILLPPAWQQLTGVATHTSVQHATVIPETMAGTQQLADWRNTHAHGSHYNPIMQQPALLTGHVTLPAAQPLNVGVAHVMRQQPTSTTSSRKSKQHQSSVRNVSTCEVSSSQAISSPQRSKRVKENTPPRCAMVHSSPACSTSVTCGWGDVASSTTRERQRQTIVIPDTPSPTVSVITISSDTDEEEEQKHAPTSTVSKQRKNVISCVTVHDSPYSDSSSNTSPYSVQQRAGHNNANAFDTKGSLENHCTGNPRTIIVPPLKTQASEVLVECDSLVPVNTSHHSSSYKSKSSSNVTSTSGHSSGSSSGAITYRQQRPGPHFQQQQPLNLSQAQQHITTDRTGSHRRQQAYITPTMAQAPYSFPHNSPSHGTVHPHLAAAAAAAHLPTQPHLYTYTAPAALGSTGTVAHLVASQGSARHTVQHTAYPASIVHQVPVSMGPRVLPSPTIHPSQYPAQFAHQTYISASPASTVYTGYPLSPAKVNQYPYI

[8] = target: Tyrosine-protein kinase Lck (Homo sapiens) (UniProt P06239); test: Inhibition of recombinant full length human LCK activated assessed as residual activity at 1 uM using KVEKIGEGTYGVVYK as substrate after 40 mins in presence of [gamma-33ATP] by scintillation counting based radiometry assay relative to control
[9] = target: Serine/threonine-protein kinase STK11 (Homo sapiens) (UniProt Q15831); test: Inhibition of recombinant human LKB1 assessed as residual activity at 1 uM using LSNLYHQGKFLQTFCGSPLYRRR as substrate after 40 mins in presence of [gamma-33ATP] by scintillation counting based radiometry assay relative to control
[10] = target: Dual specificity mitogen-activated protein kinase kinase 1 (Homo sapiens) (UniProt Q02750); test: Inhibition of recombinant human MEK1 assessed as residual activity at 1 uM using inactive MAPK2 as substrate incubated for 40 mins in presence of [gamma-33ATP by scintillation counting based radiometry assay relative to control
[11] = target: FKBP12A/mTOR (Homo sapiens) (UniProt P62942+P42345); test: Inhibition of recombinant full length human mTOR/FKBP12 assessed as residual activity at 1 uM measured after 40 mins in presence of [gamma33P]ATP by scintillation counting based radiometry assay relative to control; type: protein-complex assay
[12] = system: Serine/threonine-protein kinase Nek4 (Homo sapiens), P51957 [P225A]; test: Inhibition of recombinant full-length human NEK4 P225A mutant assessed as residual activity at 1 uM using myelin basic protein as substrate measured after 40 mins in presence of [gamma33P]ATP by scintillation counting method relative to control
[13] = system: Platelet-derived growth factor receptor alpha (Homo sapiens), P16234 [V561D]; test: Inhibition of human PDGFRalpha V561D mutant (550 to end residues) assessed as residual activity at 1 uM using GGMEDIYFEFMGGKKK as substrate measured after 40 mins in presence of [gamma33P]ATP by scintillation counting method relative to control
Homo sapiens [14] = species: Homo sapiens; test: Inhibition of recombinant full length human PKBalpha S478G mutant assessed as residual activity at 1 uM using GRPRTSSFAEGKK as substrate measured after 40 mins in presence of [gamma33P]ATP by scintillation counting method relative to control
[15] = target: Serine/threonine-protein kinase N2 (Homo sapiens) (UniProt Q16513); test: Inhibition of recombinant human PRK2 (501 to end residues) assessed as residual activity at 1 uM using AKRRRLSSLRA as substrate measured after 40 mins in presence of [gamma33P]ATP by scintillation counting method relative to control
Serine/threonine-protein kinase N2 (Homo sapiens), sequence (Q16513 whole entry, looked up): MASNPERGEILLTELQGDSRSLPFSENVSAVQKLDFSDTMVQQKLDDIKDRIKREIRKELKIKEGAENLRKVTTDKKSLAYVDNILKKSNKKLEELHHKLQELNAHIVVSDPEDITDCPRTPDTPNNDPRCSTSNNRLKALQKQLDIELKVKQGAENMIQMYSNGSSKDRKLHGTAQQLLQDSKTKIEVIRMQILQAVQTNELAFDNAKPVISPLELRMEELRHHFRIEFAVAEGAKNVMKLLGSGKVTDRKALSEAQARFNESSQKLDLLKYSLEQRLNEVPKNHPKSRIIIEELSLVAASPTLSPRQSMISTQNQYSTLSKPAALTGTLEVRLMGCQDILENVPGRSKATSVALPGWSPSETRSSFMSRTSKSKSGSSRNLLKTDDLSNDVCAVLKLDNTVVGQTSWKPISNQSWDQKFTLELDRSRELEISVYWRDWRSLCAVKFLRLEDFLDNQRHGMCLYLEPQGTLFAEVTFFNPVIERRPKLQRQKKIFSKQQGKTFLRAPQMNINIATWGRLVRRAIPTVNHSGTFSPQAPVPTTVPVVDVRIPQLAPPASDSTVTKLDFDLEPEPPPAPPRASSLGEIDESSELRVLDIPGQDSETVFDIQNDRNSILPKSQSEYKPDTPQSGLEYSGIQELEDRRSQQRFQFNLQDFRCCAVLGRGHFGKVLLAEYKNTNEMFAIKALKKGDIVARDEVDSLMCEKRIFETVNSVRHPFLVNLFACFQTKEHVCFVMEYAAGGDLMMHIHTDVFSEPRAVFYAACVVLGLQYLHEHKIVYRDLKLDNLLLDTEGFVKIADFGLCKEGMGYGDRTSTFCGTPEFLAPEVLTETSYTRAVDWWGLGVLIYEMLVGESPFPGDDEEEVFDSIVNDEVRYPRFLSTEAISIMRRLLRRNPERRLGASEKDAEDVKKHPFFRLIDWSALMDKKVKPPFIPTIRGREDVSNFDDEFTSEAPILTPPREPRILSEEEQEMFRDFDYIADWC

[16] = target: Macrophage-stimulating protein receptor (Homo sapiens) (UniProt Q04912); test: Inhibition of recombinant human Ron (983 to end residues) assessed as residual activity at 1 uM using GGMEDIYFEFMGGKKK as substrate measured after 40 mins in presence of [gamma33P]ATP by scintillation counting method relative to control
[17] = target: Serine/threonine-protein kinase SBK1 (Homo sapiens) (UniProt Q52WX2); test: Inhibition of recombinant full-length human SBK1 assessed as residual activity at 1 uM using KKLRRTLSVA as substrate measured after 120 mins in presence of [gamma33P]ATP by scintillation counting method relative to control
Serine/threonine-protein kinase SBK1 (Homo sapiens), sequence (Q52WX2 whole entry, the tested form may be a part): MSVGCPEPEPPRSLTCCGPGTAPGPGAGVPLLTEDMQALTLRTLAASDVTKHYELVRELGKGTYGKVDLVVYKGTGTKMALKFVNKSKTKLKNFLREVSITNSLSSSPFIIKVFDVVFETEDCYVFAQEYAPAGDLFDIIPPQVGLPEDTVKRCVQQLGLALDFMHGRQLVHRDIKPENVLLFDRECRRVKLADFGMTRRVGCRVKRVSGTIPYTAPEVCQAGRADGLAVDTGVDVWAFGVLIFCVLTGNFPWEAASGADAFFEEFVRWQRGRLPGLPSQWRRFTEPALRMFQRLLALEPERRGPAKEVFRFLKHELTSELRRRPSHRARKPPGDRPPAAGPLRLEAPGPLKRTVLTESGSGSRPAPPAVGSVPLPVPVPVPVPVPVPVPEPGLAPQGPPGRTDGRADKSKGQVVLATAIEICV

[18] = system: SNF-related serine/threonine-protein kinase (Homo sapiens), Q9NRH2 [UNDEFINED MUTATION]; test: Inhibition of human SNRK E97G/P116A mutant (65 to 409 residues) assessed as residual activity at 1 uM using KKLRRTLSFAEPG as substrate measured after 40 mins in presence of [gamma33P]ATP by scintillation counting method relative to control
[19] = target: BDNF/NT-3 growth factors receptor (Homo sapiens) (UniProt Q16620); test: Inhibition of human TrkB (455 to end residues) assessed as residual activity at 1 uM using poly(Glu, Tyr) 4:1 as substrate measured after 40 mins in presence of [gamma33P]ATP by scintillation counting method relative to control
BDNF/NT-3 growth factors receptor (Homo sapiens), sequence (Q16620 32-822 limits assumed): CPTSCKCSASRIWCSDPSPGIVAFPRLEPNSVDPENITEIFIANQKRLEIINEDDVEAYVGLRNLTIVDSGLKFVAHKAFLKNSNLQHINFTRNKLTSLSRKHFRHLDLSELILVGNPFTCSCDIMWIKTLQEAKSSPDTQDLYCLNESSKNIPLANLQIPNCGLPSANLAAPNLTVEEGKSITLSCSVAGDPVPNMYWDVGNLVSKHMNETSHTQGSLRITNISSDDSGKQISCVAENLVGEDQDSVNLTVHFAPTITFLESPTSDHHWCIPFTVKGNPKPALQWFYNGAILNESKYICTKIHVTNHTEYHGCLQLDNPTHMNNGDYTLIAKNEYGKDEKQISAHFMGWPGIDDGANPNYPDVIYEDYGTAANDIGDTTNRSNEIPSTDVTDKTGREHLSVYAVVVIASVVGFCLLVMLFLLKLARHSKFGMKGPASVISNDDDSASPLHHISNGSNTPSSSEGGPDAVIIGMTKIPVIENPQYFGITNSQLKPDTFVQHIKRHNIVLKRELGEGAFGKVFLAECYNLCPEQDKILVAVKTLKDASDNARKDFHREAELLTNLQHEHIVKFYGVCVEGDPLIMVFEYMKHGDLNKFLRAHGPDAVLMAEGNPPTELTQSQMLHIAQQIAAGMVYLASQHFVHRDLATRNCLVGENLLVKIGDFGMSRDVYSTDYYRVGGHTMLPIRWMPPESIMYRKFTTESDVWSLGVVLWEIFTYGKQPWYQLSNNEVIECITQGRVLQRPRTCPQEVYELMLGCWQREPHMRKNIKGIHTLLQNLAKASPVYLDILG

Homo sapiens [20] = species: Homo sapiens; test: Inhibition of recombinant full-length human PI3K p120gamma R459Q mutant at 1 uM assessed as residual activity at 1 uM using phosphatidylinositol-4, 5-bisphosphate as substrate measured after 40 mins by fluorescence assay
[21] = system: Casein kinase II subunit alpha' (CSNK2A2); test: Inhibition of recombinant full length human CK2alpha2 assessed as residual activity at 1 uM using RRRDDDSDDD as substrate incubated 40 mins in presence of [gamma-33ATP] by scintillation counting based radiometry assay relative to control

Row | SMILES | Activity [1] [%] | Activity [2] [%] | Activity [3] [%] | Activity [4] [%] | Activity [5] [%] | Activity [6] [%] | Activity [7] [%] | Activity [8] [%] | Activity [9] [%] | Activity [10] [%] | Activity [11] [%] | Activity [12] [%] | Activity [13] [%] | Activity (Homo sapiens [14]) [%] | Activity [15] [%] | Activity [16] [%] | Activity [17] [%] | Activity [18] [%] | Activity [19] [%] | Activity (Homo sapiens [20]) [%] | further results
1 | C=CCOC(=O)c1cc(-c2ccc(/C=C3/NC(=S)NC3=O)o2)ccc1Cl | 107 | 99 | 65 | 76 | 102 | 98 | 5 | 76 | 93 | 96 | 97 | 92 | 110 | 97 | 107 | 106 | 112 | 83 | 92 | 93 | Activity [21]: 73%
2 | N=C1NC(=O)/C(=C\c2ccc(-c3cccc([N+](=O)[O-])c3)o2)S1 | 87 | 91 | 92 | 93 | 91 | 102 | 1 | 93 | 37 | 88 | 107 | 98 | 91 | 97 | 95 | 104 | 98 | 110 | 98 | 93 | Activity [21]: 52%
